Common to all, as to assay: MIC by broth microdilution (NCCLS M7-A5)
The test system of test [1] is Klebsiella pneumoniae CF104.
For test [2], the system named is Serratia marcescens S6.
The test system of test [3] is Pseudomonas aeruginosa 1973E.
In test [4] the test system is Pseudomonas aeruginosa MK1184.
The test system of test [5] is Stenotrophomonas malthophilia 1AC736. The settings on record: Stenotrophomonas maltophilia 1AC736.
For test [6], the system named is Acinetobacter sp. J2. The conditions noted are these: Acinetobacter baumannii J2.
Test [7] deals with Enterobacter cloacae P99.
Where [8] appears, read: + 206 + clavulanate, 4 mg/L each.
[9] abbreviates: + 315 + clavulanate, 4 mg/L each.
Where [10] appears, read: + 102 + clavulanate, 4 mg/L each.
Setting [11] is: MIC of antibiotic 1 with the labelled bridged monobactam of formula II and clavulanate, 4 mg/L each.

Regarding `CC1C(NC(=O)C(=NOCc2cc(=O)c(O)cn2O)c2nsc(N)n2)C(=O)N1S(=O)(=O)O` (stereo not drawn) [Compound 2], the MIC of antibiotic in test [1] (antibiotic alone) was more than 32 µg/mL; in test [2] (antibiotic alone), more than 32 µg/mL; in test [3] (antibiotic alone), 8 µg/mL; in test [4] (setting [8]), 16 µg/mL; in test [4] (antibiotic alone) it was 8 µg/mL; in test [5] (setting [8]), 0.5 µg/mL. The MIC of antibiotic is 4 µg/mL in test [5] (antibiotic alone); 16 µg/mL in test [6] (setting [8]); 4 µg/mL in test [6] (antibiotic alone); 16 µg/mL in test [7] (setting [8]); more than 32 µg/mL in test [7] (antibiotic alone).

Regarding `C[C@H]1[C@H](NC(=O)/C(=N\OCc2cc(=O)c(O)cn2C)c2csc(N)n2)C(=O)N1S(=O)(=O)O` [Compound 6, (3S,4S)-3-{(2Z)-2-(2-amino(1,3-thiazol-4-yl))-3-[(5-hydroxy-1-methyl-4-oxo(2-hydropyridyl))methoxy]-3-azaprop-2-enoylamino}-4-methyl-2-oxoazetidinesulfonic acid], the MIC of antibiotic was 0.5 µg/mL in test [1] (setting [8]); 0.5 µg/mL in test [1] (setting [9]); 4 µg/mL in test [2] (setting [8]); 4 µg/mL in test [2] (setting [9]); more than 32 µg/mL in test [3] (setting [8]); more than 32 µg/mL in test [3] (setting [9]). For the same molecule, the MIC of antibiotic was more than 32 µg/mL in test [4] (setting [8]); more than 32 µg/mL in test [4] (setting [9]); 4 µg/mL in test [5] (setting [8]); 2 µg/mL in test [5] (setting [9]); 32 µg/mL in test [6] (setting [8]); more than 32 µg/mL in test [6] (setting [9]). The MIC of antibiotic in test [7] (setting [8]) was 16 µg/mL; in test [7] (setting [9]), 4 µg/mL.

On to `Nc1nc(C(=NOCc2cc(=O)c(O)cn2O)C(=O)NC2CN(S(=O)(=O)O)C2=O)cs1` (stereo not drawn) [Compound 9], for which the MIC of antibiotic in test [1] (setting [10]) is 0.5 µg/mL; in test [1] (antibiotic alone), more than 32 µg/mL; in test [2] (setting [10]), 1 µg/mL; in test [2] (antibiotic alone), 16 µg/mL; in test [3] (setting [10]) it was 8 µg/mL; in test [3] (antibiotic alone) it was 8 µg/mL. The MIC of antibiotic in test [4] (setting [10]) was 4 µg/mL; in test [4] (antibiotic alone) it was more than 32 µg/mL; in test [5] (setting [10]) it was 0.25 µg/mL; in test [5] (antibiotic alone) it was 0.5 µg/mL; in test [6] (setting [10]), more than 32 µg/mL; in test [6] (antibiotic alone) it was more than 32 µg/mL. Moreover, the MIC of antibiotic in test [7] (setting [10]) is 32 µg/mL; in test [7] (antibiotic alone), more than 32 µg/mL.

With `CC1C(NC(=O)C(=NOCc2cc(=O)c(O)cn2O)c2noc(N)n2)C(=O)N1S(=O)(=O)O` (stereo not drawn) [Compound 16], the MIC of antibiotic in test [1] (setting [10]) is 32 µg/mL; in test [1] (antibiotic alone) it was more than 32 µg/mL; in test [2] (setting [10]), more than 32 µg/mL; in test [2] (antibiotic alone), more than 32 µg/mL; in test [3] (setting [10]), 16 µg/mL; in test [3] (antibiotic alone), more than 32 µg/mL. Further, the MIC of antibiotic in test [4] (setting [10]) was 16 µg/mL; in test [4] (antibiotic alone), more than 32 µg/mL; in test [5] (setting [10]), 2 µg/mL; in test [5] (antibiotic alone), more than 32 µg/mL; in test [6] (setting [10]), 16 µg/mL; in test [6] (antibiotic alone), more than 32 µg/mL. Moreover, the MIC of antibiotic in test [7] (setting [10]) and in test [7] (antibiotic alone) was more than 32 µg/mL each time.

As to `CC1C(NC(=O)C(=NOCc2cc(=O)c(O)cn2O)c2cccc(N)n2)C(=O)N1S(=O)(=O)O` (stereo not drawn) [Compound 20], the MIC of antibiotic is 2 µg/mL in test [1] (setting [10]); 4 µg/mL in test [1] (setting [8]); 16 µg/mL in test [1] (+ 501 4 mg/L); 32 µg/mL in test [1] (+ clavulanate 4 mg/L); more than 32 µg/mL in test [1] (antibiotic alone); 0.5 µg/mL in test [2] (setting [10]). Also, the MIC of antibiotic came out at 0.5 µg/mL in test [2] (setting [8]); 2 µg/mL in test [2] (+ 501 4 mg/L); 2 µg/mL in test [2] (+ clavulanate 4 mg/L); 4 µg/mL in test [2] (antibiotic alone); 32 µg/mL in test [3] (setting [10]); 16 µg/mL in test [3] (setting [8]). The MIC of antibiotic in test [3] (+ 501 4 mg/L) is 16 µg/mL; in test [3] (+ clavulanate 4 mg/L), 16 µg/mL; in test [3] (antibiotic alone), 16 µg/mL; in test [4] (setting [10]), 8 µg/mL; in test [4] (setting [8]), more than 32 µg/mL; in test [4] (+ 501 4 mg/L), more than 32 µg/mL. For the same molecule, the MIC of antibiotic in test [4] (+ clavulanate 4 mg/L) was more than 32 µg/mL; in test [4] (antibiotic alone), more than 32 µg/mL; in test [5] (setting [10]), 0.25 µg/mL; in test [5] (setting [8]), 0.5 µg/mL; in test [5] (+ 501 4 mg/L), 0.25 µg/mL; in test [5] (+ clavulanate 4 mg/L) it was 0.25 µg/mL. For the same molecule, the MIC of antibiotic in test [5] (antibiotic alone) is 4 µg/mL; in test [6] (setting [10]), more than 32 µg/mL; in test [6] (setting [8]) it was more than 32 µg/mL; in test [6] (+ 501 4 mg/L), less than 0.06 µg/mL; in test [6] (+ clavulanate 4 mg/L), more than 32 µg/mL; in test [6] (antibiotic alone), more than 32 µg/mL. Besides, the MIC of antibiotic in test [7] (setting [10]) is 16 µg/mL; in test [7] (setting [8]), 16 µg/mL; in test [7] (+ 501 4 mg/L), more than 32 µg/mL; in test [7] (+ clavulanate 4 mg/L), more than 32 µg/mL; in test [7] (antibiotic alone) it was more than 32 µg/mL.

As for `C[C@H]1[C@H](NC(=O)/C(=N\OCc2cc(=O)c(O)cn2O)c2nccc(N)n2)C(=O)N1S(=O)(=O)O` [Compound 21, (3S,4S)-3-{(2Z)-2-(4-aminopyrimidin-2-yl)-3-[(1,5-dihydroxy-4-oxo(2-hydropyridyl))methoxy]-3-azaprop-2-enoylamino}-4-methyl-2-oxoazetidinesulfonic acid], the MIC of antibiotic in test [1] (+ 102 + sulbactam, 4 mg/L each) was 2 µg/mL; in test [1] (+ 324 + sulbactam, 4 mg/L each), 4 µg/mL; in test [1] (antibiotic alone) it was more than 32 µg/mL; in test [2] (+ 102 + sulbactam, 4 mg/L each), 16 µg/mL; in test [2] (+ 324 + sulbactam, 4 mg/L each) it was 4 µg/mL; in test [2] (antibiotic alone) it was 8 µg/mL. For the same molecule, the MIC of antibiotic is 16 µg/mL in test [3] (+ 102 + sulbactam, 4 mg/L each); 16 µg/mL in test [3] (+ 324 + sulbactam, 4 mg/L each); 8 µg/mL in test [3] (antibiotic alone); 32 µg/mL in test [4] (+ 102 + sulbactam, 4 mg/L each); 32 µg/mL in test [4] (+ 324 + sulbactam, 4 mg/L each); more than 32 µg/mL in test [4] (antibiotic alone). In addition, the MIC of antibiotic in test [5] (+ 102 + sulbactam, 4 mg/L each) is 8 µg/mL; in test [5] (+ 324 + sulbactam, 4 mg/L each), 4 µg/mL; in test [5] (antibiotic alone), 8 µg/mL; in test [6] (+ 102 + sulbactam, 4 mg/L each), 2 µg/mL; in test [6] (+ 324 + sulbactam, 4 mg/L each) it was 2 µg/mL; in test [6] (antibiotic alone), more than 32 µg/mL. Further, the MIC of antibiotic in test [7] (+ 102 + sulbactam, 4 mg/L each) was 32 µg/mL; in test [7] (+ 324 + sulbactam, 4 mg/L each), 8 µg/mL; in test [7] (antibiotic alone), more than 32 µg/mL.

`C[C@H]1[C@H](NC(=O)/C(=N\OCc2cc(=O)c(O)cn2O)c2csc(N)n2)C(=O)N1OCC(=O)O` [Compound 22, 2-((3S,4S)-3-{(2Z)-2-(2-amino(1,3-thiazol-4-yl))-3-[(1,5-dihydroxy-4-oxo(2-hydropyridyl))methoxy]-3-azaprop-2-enoylamino}-4-methyl-2-oxoazetidinyloxy)acetic acid]: the MIC of antibiotic in test [1] (setting [10]) was 0.25 µg/mL; in test [1] (antibiotic alone), more than 32 µg/mL; in test [2] (setting [10]), 0.25 µg/mL; in test [2] (antibiotic alone) it was 0.13 µg/mL; in test [3] (setting [10]), 4 µg/mL; in test [3] (antibiotic alone) it was 4 µg/mL. In addition, the MIC of antibiotic in test [4] (setting [10]) is 4 µg/mL; in test [4] (antibiotic alone) it was 8 µg/mL; in test [5] (setting [10]), 1 µg/mL; in test [5] (antibiotic alone), 0.5 µg/mL; in test [6] (setting [10]), 4 µg/mL; in test [6] (antibiotic alone), more than 32 µg/mL. In addition, the MIC of antibiotic in test [7] (setting [10]) is 8 µg/mL; in test [7] (antibiotic alone), more than 32 µg/mL.

Take `Nc1nc(CC(=O)N2CC[C@@H]3[C@H]2C(=O)N3S(=O)(=O)O)cs1` [Compound 401]: the “MIC of antibiotic at fixed inhibitor concentration (4 mg/L)” value in test [1] (setting [11]) was 35 µg/mL; in test [2] (setting [11]), 3.125 µg/mL; in test [3] (setting [11]), 3 µg/mL.

For the origin of these results see patent US9346799B2, “Useful combinations of monobactam antibiotics with beta-lactamase inhibitors” (Basilea Pharmaceutica AG, priority 2005, dated 2016).
